One data set concerns A-549. The data set is described as follows: Inhibition of cells growth by colorimetric (SRB) assay, A-549. Particulars: for GI50 / CC50: Homo sapiens, A549, 48 h; for GI50: read-out: GI50 A-549, SRB assay, 48 hours exposure; for TGI A-549 / A-549 TGI: SRB assay, 48 hours exposure. The method in brief: (§1)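 Human tumour cells in RPMI 1640 with 10% FBS were seeded at 5×10^3 cells/well, allowed to attach for 18 h, then exposed to samples at 10 to 10^−8 μg/ml for 48 h. Growth was measured by SRB staining after TCA fixation, with absorbance read at 490 nm in triplicate wells.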
(In general: The SRB assay estimates cell density from bound dye.)

A further data set concerns HT-29. The data set is described as follows: Inhibition of cells growth by colorimetric (SRB) assay, HT-29. Particulars: for GI50 / CC50: Homo sapiens, HT-29, 48 h; for TGI HT-29 / HT-29 TGI: SRB assay, 48 hours exposure. The method in brief: as §1
Data set [1] can be described thus: Inhibition of cells growth by colorimetric (SRB) assay, HMEC1. Particulars: human, HMEC1 cells, LC50 H-MEC-1, SRB assay, 48 hours exposure.
In another data set the test system is HMEC1. The data set is described as above. Particulars: for GI50: Homo sapiens, HMEC-1, 48 h, read-out: GI50 H-MEC-1, SRB assay, 48 hours exposure; for TGI H-MEC-1: SRB assay, 48 hours exposure, in M (unit assumed).
The mark [2] stands for this setting: read-out: LC50 A-549, SRB assay, 48 hours exposure.
Setting [3] is: read-out: GI50 HT-29, SRB assay, 48 hours exposure.
The mark [4] stands for this setting: read-out: LC50 HT-29, SRB assay, 48 hours exposure.
[5] abbreviates: read-out: A-549 LC50, SRB assay, 48 hours exposure.
Setting [6] is: read-out: HT-29 GI50, SRB assay, 48 hours exposure.
[7] abbreviates: read-out: HT-29 LC50, SRB assay, 48 hours exposure.

Where two headings read alike, the source gives them in different places. A value given as a limit tells only on which side of the number the result lay.

Consider `CSc1nccc(-c2c3cc(Cl)cnc3n3c(SC)nccc23)n1` [Compound 47], for which the GI50 (in general, the concentration at which growth is held to half of that of the control) in the data set with A-549 came out at 17.2 µM; with HT-29 (setting [3]), 20.4 µM; with HMEC1 it was 26.7 µM. The CC50 in the data set on A-549 (setting [2]) and in the data set on HT-29 (setting [4]) was 26.7 µM each time. In the data set with A-549, the “TGI A-549” value turned out to be 2.67E−05. For the same compound, the “TGI HT-29” value with HT-29 came out at 2.67E−05. Moreover, in data set [1], the CC50 at 48 h was 26.7 µM. Moreover, in the data set on HMEC1, the “TGI H-MEC-1” value is given as 2.67E−05.
Regarding `CSc1nccc(-c2c3cc(F)c(Cl)nc3n3c(SC)nccc23)n1` [Compound 48], the GI50 in the data set on A-549, in the data set on HT-29 (setting [3]) and with HMEC1 was 25.5 µM in each case. The CC50 in the data set on A-549 (setting [2]) and with HT-29 (setting [4]) was 25.5 µM throughout. For the same compound, the “TGI A-549” value in the data set with A-549 is 2.55E−05. In addition, the “TGI HT-29” value in the data set on HT-29 turned out to be 2.55E−05. In addition, the CC50 at 48 h in data set [1] is 25.5 µM. The “TGI H-MEC-1” value with HMEC1 was 2.55E−05.
As to `COc1cccc(-c2c3cccnc3n3c(SC)nccc23)c1` [Compound 57], the CC50 in the data set on A-549 (setting [5]) and with HT-29 (setting [7]) was 31.1 µM throughout. Besides, the values for the GI50 in the data set with A-549, in the data set with HT-29 (setting [6]) and in the data set with HMEC1 were 22.5 µM, 31.1 µM and 31.1 µM, respectively. The “A-549 TGI” value with A-549 is recorded as 3.11E−05. The “HT-29 TGI” value in the data set on HT-29 was 3.11E−05. For the same compound, the CC50 at 48 h in data set [1] came to 31.1 µM. Moreover, in the data set with HMEC1, the “TGI H-MEC-1” value is given as 3.11E−05.
Consider `CSc1nccc2c(-c3ccccc3)c3cccnc3n12` [Compound 58], for which the CC50 with A-549 (setting [5]) and with HT-29 (setting [7]) was at least 34.3 µM in each case. Moreover, the GI50 with A-549, in the data set on HT-29 (setting [6]) and with HMEC1 was at least 34.3 µM throughout. In addition, the “A-549 TGI” value with A-549 turned out to be 3.43E−05. Also, in the data set with HT-29, the “HT-29 TGI” value amounted to 3.43E−05. The compound further registered a CC50 at 48 h in data set [1] of at least 34.3 µM. For the same compound, the “TGI H-MEC-1” value with HMEC1 was determined as 3.43E−05.

Values taken from US7772241B2, “Variolin derivatives and their use as antitumor agents” (Pharma Mar S.A., priority 2001, dated 2010).
